Results reported in PMC9598656, “In Vitro Activity of Robenidine Analogues NCL259 and NCL265 against Gram-Negative Pathogens” (Antibiotics, 2022).

Assays:
[1] = test system: E. coli ATCC 10763; experiment: MIC, broth micro-dilution; assay type: cell-based, Escherichia coli; conditions: E. coli ATCC 10763
Protocol: (§1) A variety of Gram-negative reference strains (E. coli ATCC 25922, E. coli ATCC 10763, P. aeruginosa PAO1, P. aeruginosa ATCC 27853, A. baumannii ATCC 12457, A. baumannii ATCC 19606, K. pneumoniae ATCC 4352 and K. pneumoniae ATCC 33495) were used for initial screening and combination testing with PMB. The organisms were speciated using biochemical testing and MALDI-TOF mass spectrometry (Bruker, Preston, VIC, Australia). Activity testing of NCL259 and NCL265 was also carried out on 51 extraintestinal clinical E. coli isolates from companion animals, and 83 porcine and bovine enterotoxigenic E. coli (ETEC) isolates from the Australian Centre for Antimicrobial Resistance Ecology collection. E. coli wild-type (BW 25113) and its mutant BW 25113∆AcrB, in which the inner membrane component AcrB of the tripartite multidrug efflux system AcrA/AcrB/TolC has been deleted, were obtained from the bacterial collection held at Health and Biomedical Innovation, Clinical and Health Sciences, The University of South Australia. All isolates were cultured on sheep blood agar (SBA) plates at 37 °C for 18 h before being subcultured into Luria Bertaini (LB) (Oxoid, Scoresby, VIC, Australia) broth and grown to A600nm = 0.5 (equivalent to approx. 1.5 × 10^8 colony-forming units (CFU)/mL).
(§2) MICs for NCL259 and NCL265 (serial two-fold dilutions commencing at 256 µg/mL) were determined (in duplicate) in round bottom 96–well microtitre trays (Sarstedt 82.1582.001), using the broth micro-dilution method recommended by the Clinical and Laboratory Standards Institute (CLSI). We have shown previously that robenidine can chelate calcium ions from cation-adjusted Mueller-Hinton broth, which causes the loss of activity of robenidine. Therefore, LB broth was used in this study. Additionally, considering the low solubility of robenidine and its analogues in aqueous solutions, two-fold serial dilutions of stock solutions of these compounds were prepared in 100% DMSO [21]. The MIC for ampicillin against each isolate was determined for each test to serve as an internal quality control. The MICs of isolates were determined by visual reading and using an EnSpire Multimode Plate Reader 2300 at A600nm.

[2] = test system: E. coli ATCC 25922; experiment: MIC, broth micro-dilution; assay type: cell-based, Escherichia coli
Protocol: as §1, §2

[3] = test system: P. aeruginosa ATCC 27853; experiment: MIC, broth micro-dilution; assay type: cell-based, Pseudomonas aeruginosa
Protocol: as §1, §2

[4] = test system: P. aeruginosa PAO1; experiment: MIC, broth micro-dilution; assay type: cell-based, Pseudomonas aeruginosa
Protocol: as §1, §2

[5] = test system: A. baumannii ATCC 12457; experiment: MIC, broth micro-dilution; assay type: cell-based, Acinetobacter baumannii
Protocol: as §1, §2

[6] = test system: A. baumannii ATCC 19606; experiment: MIC, broth micro-dilution; assay type: cell-based, Acinetobacter baumannii
Protocol: as §1, §2

[7] = test system: K. pneumoniae ATCC 33495; experiment: MIC, broth micro-dilution; assay type: cell-based, Klebsiella pneumoniae; conditions: K. pneumoniae ATCC 33495
Protocol: as §1, §2

[8] = test system: K. pneumoniae ATCC 4352; experiment: MIC, broth micro-dilution; assay type: cell-based, Klebsiella pneumoniae
Protocol: as §1, §2

[9] = test system: E. coli ATCC 10763; experiment: Checkerboard assay with PMB; assay type: cell-based, Escherichia coli
Protocol: (§3) MICs of NCL259 or NCL265 in the presence of the efflux pump inhibitor, PAβN were determined using a checkerboard assay. […] Briefly, a two-fold serial dilution of each antimicrobial solution was prepared in its appropriate solvent (e.g., DMSO for robenidine analogues and Milli-Q water for PAβN), and 1 μL of each dilution was added from wells 12 to 3 (12.8–0.25 μg/mL for robenidine analogues, and 32–2 μg/mL for PAβN). Thereafter, 89 μL of LB broth was added to each well followed by the addition of 10 μL of bacterial suspension (1–5 × 10^6 CFU/mL) to each well. In this manner, the final concentration of DMSO in each well was 1%. The plate was subsequently incubated at 37 °C for 24 h. The resazurin assay was used for assessment of drug susceptibility of NCL259 and NCL265 (Supplementary Table S1–S6). The same method was also used to test the MICs of NCL259 or NCL265 in the presence of PMB against a range of Gram-negative reference strains (E. coli ATCC 25922, E. coli ATCC 10763, P. aeruginosa PAO1, P. aeruginosa ATCC 27853, A. baumannii ATCC 12457, A. baumannii ATCC 19606, K. pneumoniae ATCC 4352 and K. pneumoniae ATCC 33495). Stock solutions were prepared prior to use (25.6–0.25 mg/mL for robenidine analogues; 12.8–0.25 mg/mL for PMB). The interaction of two antibiotics was calculated as the fractional inhibitory concentration index (FICI) using the following formula:(1) FICI=MICA in combination/MICA alone+MICB in combination/MICB alone where A is NCL259 or NCL265 and B is PAβN or PMB. According to FICI calculations, the interaction between two compounds were interpreted as follows: synergistic (FICI ≤ 0.5); additive or partially synergistic (0.5 < FICI ≤ 1); indifferent (1 < FICI ≤ 4); and antagonistic (FICI > 4), as described previously. The dose reduction index (DRI) was used to describe the difference between the effective doses of NCL259 or NCL265 in combination with PMB or PAβN in comparison to their individual doses, using the following formula:(2) DRI=MICA alone/MICA in combination
(§4) Evaluation of DRI is important clinically because it can allow the dose of a potentially toxic drug to be lowered in combination with another compound without reducing the drug’s efficacy. A DRI higher than 1 is viewed as beneficial.

[10] = test system: E. coli ATCC 25922; experiment: Checkerboard assay with PMB; assay type: cell-based, Escherichia coli
Protocol: as §3, §4

[11] = test system: P. aeruginosa ATCC 27853; experiment: Checkerboard assay with PMB; assay type: cell-based, Pseudomonas aeruginosa
Protocol: as §3, §4

[12] = test system: P. aeruginosa PAO1; experiment: Checkerboard assay with PMB; assay type: cell-based, Pseudomonas aeruginosa
Protocol: as §3, §4

[13] = test system: A. baumannii ATCC 12457; experiment: Checkerboard assay with PMB; assay type: cell-based, Acinetobacter baumannii
Protocol: as §3, §4

[14] = test system: A. baumannii ATCC 19606; experiment: Checkerboard assay with PMB; assay type: cell-based, Acinetobacter baumannii
Protocol: as §3, §4

[15] = test system: K. pneumoniae ATCC 33495; experiment: Checkerboard assay with PMB; assay type: cell-based, Klebsiella pneumoniae
Protocol: as §3, §4

[16] = test system: K. pneumoniae ATCC 4352; experiment: Checkerboard assay with PMB; assay type: cell-based, Klebsiella pneumoniae
Protocol: as §3, §4

polymyxin B [PMB, reference compound]
2: Dose Reduction Index (DRI) PMB:NCL259 ([9]; PMB + NCL259) | Dose Reduction Index (DRI) PMB:NCL259 ([10]; PMB + NCL259) | Dose Reduction Index (DRI) PMB:NCL265 ([10]; PMB + NCL265) | Dose Reduction Index (DRI) PMB:NCL259 ([11]; PMB + NCL259) | Dose Reduction Index (DRI) PMB:NCL265 ([11]; PMB + NCL265) | Dose Reduction Index (DRI) PMB:NCL259 ([12]; PMB + NCL259) | Dose Reduction Index (DRI) PMB:NCL265 ([12]; PMB + NCL265) | Dose Reduction Index (DRI) PMB:NCL259 ([13]; PMB + NCL259) | Dose Reduction Index (DRI) PMB:NCL265 ([13]; PMB + NCL265) | Dose Reduction Index (DRI) PMB:NCL259 ([14]; PMB + NCL259) | Dose Reduction Index (DRI) PMB:NCL265 ([14]; PMB + NCL265) | Dose Reduction Index (DRI) PMB:NCL259 ([15]; PMB + NCL259)
0.5 µg/mL: MIC, Single Drug [2] | MIC, Combination ([11]; NCL259 or NCL265 with PMB) | MIC, Combination ([12]; NCL259 or NCL265 with PMB) | MIC, Combination ([13]; NCL259 or NCL265 with PMB) | MIC, Combination ([14]; NCL259 or NCL265 with PMB)
1 µg/mL: MIC, Single Drug [1] | MIC, Single Drug [3] | MIC, Single Drug [4] | MIC, Single Drug [5] | MIC, Single Drug [6] | MIC, Single Drug [7] | MIC, Single Drug [8]
4:4: Dose Reduction Index (DRI) PMB:NCL265 ([16]; PMB + NCL265)
4: Dose Reduction Index (DRI) PMB:NCL265 ([9]; PMB + NCL265) | Dose Reduction Index (DRI) PMB:NCL265 ([15]; PMB + NCL265) | Dose Reduction Index (DRI) PMB:NCL259 ([16]; PMB + NCL259)
0.25 µg/mL: MIC, Combination ([10]; NCL259 or NCL265 with PMB) | MIC, Combination ([16]; NCL259 or NCL265 with PMB)
